Experimental data: US9023789B2, “Amylin analogs and pharmaceutical compositions thereof” (Novo Nordisk A/S, priority 2012, dated 2015)
Numbered stars: 1 amine (or outer) side, 2 acyl side, 3 side chain; on linkers, the order of the positions; unused ones are H or OH. Bridge positions count the residues as written; N and C are the ends. Side chains are listed from the residue outwards. Peptide text beside a SMILES is read from it. * marks the point of attachment. C20 diacid = O=C(O)CCCCCCCCCCCCCCCCCCC(=O)*; γGlu = O=C(O)[C@H](CCC(=O)[*:2])N[*:1]; AEEA = NCCOCCOCC(=O)O

Key:
[1] = biological target: T1, rat amylin receptor (rat calcitonin receptor + rat RAMP 3) (Rattus norvegicus, UniProt P32214+Q9JJ73); assay: ASSAY (VI) binding to the rat amylin receptor; conditions: for IC50: binding to rat amylin receptor, read-out: rAmylin-R bind IC50
T1 construct: expressed in transfected cells; host or cells: BHK tk'ts 13 (transient, FuGENE 6), membranes
T1 sequence (P32214 25-479 isoform P32214-2 limits assumed): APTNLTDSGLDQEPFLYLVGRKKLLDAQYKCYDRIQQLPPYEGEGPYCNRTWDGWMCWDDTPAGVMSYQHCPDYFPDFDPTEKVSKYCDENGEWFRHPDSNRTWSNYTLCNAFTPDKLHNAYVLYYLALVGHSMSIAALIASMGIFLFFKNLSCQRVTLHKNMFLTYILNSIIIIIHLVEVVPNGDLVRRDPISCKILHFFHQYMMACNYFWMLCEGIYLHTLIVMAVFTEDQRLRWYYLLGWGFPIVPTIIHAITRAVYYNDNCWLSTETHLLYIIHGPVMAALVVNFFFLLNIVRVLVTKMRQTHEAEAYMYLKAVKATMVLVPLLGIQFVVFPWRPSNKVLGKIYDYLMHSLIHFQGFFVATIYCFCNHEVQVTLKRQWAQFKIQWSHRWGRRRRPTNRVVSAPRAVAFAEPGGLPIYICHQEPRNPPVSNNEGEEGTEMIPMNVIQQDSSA
T1 sequence (Q9JJ73 23-147 partner): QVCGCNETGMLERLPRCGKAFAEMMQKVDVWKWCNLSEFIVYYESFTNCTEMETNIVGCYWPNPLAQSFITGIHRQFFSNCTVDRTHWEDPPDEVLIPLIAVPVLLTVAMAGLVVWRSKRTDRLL
Summary of the method: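 Membranes for this rat amylin receptor binding assay came from BHK tk′ts 13 cells. The cells were transiently transfected with rat calcitonin receptor using the FuGENE® 6 reagent from Roche, as the manufacturer recommends. The cells were collected approximately 48 hours after transfection, and membranes were then prepared.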

[2] = ASSAY (III) ThT fibrillation assay for physical stability; type: physicochemical
Summary of the method: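 Physical stability scored by ThT fluorescence (444 nm excitation, 485 nm emission) tracked every 20 min during 37 °C incubation with 960 rpm shaking, ThT at 1 μM final. Values are replicate means with SD at chosen times; HPLC against pramlintide standard gives initial and post-assay soluble concentrations.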

[3] = Table 7, rat binding selectivity, rCTR IC50 / rAmylin-R IC50
[4] = Table 7a (preferred compounds), rat binding selectivity, rCTR IC50 / rAmylin-R IC50
[5] = ratio of rCTR bind IC50 to rAmylin-R bind IC50

Row | SMILES | IC50 ([1]; Table 7) [nM] | Ratio rCT/rAmylin binding [1, 3] | Ratio rCT/rAmylin binding [1, 4] | Ratio rCT/rAmylin binding [1, 5] | ThT pH 4.0 lag time (h) [2] [h]
1 | CC[C@H](C)[C@H](NC(=O)[C@H](C)NC(=O)CNC(=O)[C@H](Cc1ccccc1)NC(=O)[C@H](CC(N)=O)NC(=O)[C@@H]1CCCN1C(=O)[C@H](CO)NC(=O)[C@H](CO)NC(=O)[C@H](Cc1c[nH]cn1)NC(=O)[C@H](CCCNC(=N)N)NC(=O)[C@H](CC(C)C)NC(=O)[C@H](Cc1ccccc1)NC(=O)[C@H](Cc1c[nH]cn1)NC(=O)[C@H](C)NC(=O)[C@H](CC(C)C)NC(=O)[C@H](CCCNC(=N)N)NC(=O)[C@H](CCC(N)=O)NC(=O)[C@@H](NC(=O)[C@H](C)NC(=O)[C@@H]1CSSC[C@H](NC(=O)[C@@H](N)CCCCNC(=O)COCCOCCNC(=O)CC[C@H](NC(=O)CCCCCCCCCCCCCCCCCCC(=O)O)C(=O)O)C(=O)N[C@@H](CC(N)=O)C(=O)N[C@@H]([C@@H](C)O)C(=O)N[C@@H](C)C(=O)N[C@@H]([C@@H](C)O)C(=O)N1)[C@@H](C)O)C(=O)N1CCC[C@H]1C(=O)N[C@@H](CO)C(=O)N[C@@H](CO)C(=O)N[C@H](C(=O)N[C@@H](CC(N)=O)C(=O)N[C@H](C(=O)NCC(=O)N1CCC[C@H]1C(=O)N[C@@H](CC(N)=O)C(=O)N[C@H](C(=O)N[C@@H](Cc1ccc(O)cc1)C(N)=O)[C@@H](C)O)C(C)C)[C@@H](C)O [Example 68] (H-K([AEEA-γGlu-C20 diacid])CNTATCATQRLAHFLRHSSPNFGAIPSSTNVGPNTY-NH2; disulfide 2-7) | 0.234 | 121.9 | 121.9 | 121.9 | 24
2 | CC[C@H](C)[C@H](NC(=O)[C@H](C)NC(=O)CNC(=O)[C@H](Cc1ccccc1)NC(=O)[C@H](CC(N)=O)NC(=O)[C@@H]1CCCN1C(=O)[C@H](CO)NC(=O)[C@H](CO)NC(=O)[C@H](Cc1c[nH]cn1)NC(=O)[C@H](CCCNC(=N)N)NC(=O)[C@H](CC(C)C)NC(=O)[C@H](Cc1ccccc1)NC(=O)[C@H](CC(N)=O)NC(=O)[C@H](C)NC(=O)[C@H](CC(C)C)NC(=O)[C@H](CCCNC(=N)N)NC(=O)[C@H](CCC(N)=O)NC(=O)[C@@H](NC(=O)[C@H](C)NC(=O)[C@@H]1CSSC[C@H](NC(=O)[C@H](CCCCN)NC(=O)CC[C@H](NC(=O)CCCCCCCCCCCCCCCCCCC(=O)O)C(=O)O)C(=O)N[C@@H](CC(N)=O)C(=O)N[C@@H]([C@@H](C)O)C(=O)N[C@@H](C)C(=O)N[C@@H]([C@@H](C)O)C(=O)N1)[C@@H](C)O)C(=O)N1CCC[C@H]1C(=O)N[C@@H](CO)C(=O)N[C@@H](CO)C(=O)N[C@H](C(=O)N[C@@H](CC(N)=O)C(=O)N[C@H](C(=O)NCC(=O)N[C@@H](CCCNC(=N)N)C(=O)N[C@@H](CC(N)=O)C(=O)N[C@H](C(=O)N[C@@H](Cc1ccc(O)cc1)C(N)=O)[C@@H](C)O)C(C)C)[C@@H](C)O [Example 39] ({C20 diacid-γGlu}-KCNTATCATQRLANFLRHSSPNFGAIPSSTNVGRNTY-NH2; disulfide 2-7) | 1.77 | 54.5 | 54.5 | 54.5 | 45
3 | CC[C@H](C)[C@H](NC(=O)[C@H](C)NC(=O)CNC(=O)[C@H](Cc1ccccc1)NC(=O)[C@H](CC(N)=O)NC(=O)[C@@H]1CCCN1C(=O)[C@H](CO)NC(=O)[C@H](CO)NC(=O)[C@H](Cc1c[nH]cn1)NC(=O)[C@H](CCCNC(=N)N)NC(=O)[C@H](CC(C)C)NC(=O)[C@H](Cc1ccccc1)NC(=O)[C@H](Cc1c[nH]cn1)NC(=O)[C@H](C)NC(=O)[C@H](CC(C)C)NC(=O)[C@H](CCCNC(=N)N)NC(=O)[C@H](CCC(N)=O)NC(=O)[C@@H](NC(=O)[C@H](C)NC(=O)[C@@H]1CSSC[C@H](NC(=O)[C@@H](N)CCCCNC(=O)COCCOCCNC(=O)CC[C@H](NC(=O)CCCCCCCCCCCCCCCCCCC(=O)O)C(=O)O)C(=O)N[C@@H](CC(N)=O)C(=O)N[C@@H]([C@@H](C)O)C(=O)N[C@@H](C)C(=O)N[C@@H]([C@@H](C)O)C(=O)N1)[C@@H](C)O)C(=O)N1CCC[C@H]1C(=O)N[C@@H](CO)C(=O)N[C@@H](CO)C(=O)N[C@H](C(=O)N[C@@H](CC(N)=O)C(=O)N[C@H](C(=O)NCC(=O)N[C@@H](CCCNC(=N)N)C(=O)N[C@@H](CC(N)=O)C(=O)N[C@H](C(=O)N[C@@H](Cc1ccc(O)cc1)C(N)=O)[C@@H](C)O)C(C)C)[C@@H](C)O [Example 84] (H-K([AEEA-γGlu-C20 diacid])CNTATCATQRLAHFLRHSSPNFGAIPSSTNVGRNTY-NH2; disulfide 2-7 (inferred); N-terminus assumed) | 5.05 | 94.3 | 94.3 | 94.3 | 45
4 | CC[C@H](C)[C@H](NC(=O)[C@H](C)NC(=O)CNC(=O)[C@H](Cc1ccccc1)NC(=O)[C@H](CC(N)=O)NC(=O)[C@@H]1CCCN1C(=O)[C@H](CO)NC(=O)[C@H](CO)NC(=O)[C@H](Cc1c[nH]cn1)NC(=O)[C@H](CCCNC(=N)N)NC(=O)[C@H](CC(C)C)NC(=O)[C@H](Cc1ccccc1)NC(=O)[C@H](CCC(=O)O)NC(=O)[C@H](C)NC(=O)[C@H](CC(C)C)NC(=O)[C@H](CCCNC(=N)N)NC(=O)[C@H](CCC(N)=O)NC(=O)[C@@H](NC(=O)[C@H](C)NC(=O)[C@@H]1CSSC[C@H](NC(=O)[C@@H](N)CCCCNC(=O)CC[C@H](NC(=O)CCCCCCCCCCCCCCCCCCC(=O)O)C(=O)O)C(=O)N[C@@H](CC(N)=O)C(=O)N[C@@H]([C@@H](C)O)C(=O)N[C@@H](C)C(=O)N[C@@H]([C@@H](C)O)C(=O)N1)[C@@H](C)O)C(=O)N1CCC[C@H]1C(=O)N[C@@H](CO)C(=O)N[C@@H](CO)C(=O)N[C@H](C(=O)N[C@@H](CC(N)=O)C(=O)N[C@H](C(=O)NCC(=O)N1CCC[C@H]1C(=O)N[C@@H](CCCNC(=N)N)C(=O)N[C@H](C(=O)N[C@@H](Cc1ccc(O)cc1)C(N)=O)[C@@H](C)O)C(C)C)[C@@H](C)O [Example 117] (H-K([γGlu-C20 diacid])CNTATCATQRLAEFLRHSSPNFGAIPSSTNVGPRTY-NH2; disulfide 2-7; N-terminus assumed) | 0.339 | 45.5 | 45.5 | 45.5 | 45
5 | CC[C@H](C)[C@H](NC(=O)[C@H](C)NC(=O)CNC(=O)[C@H](Cc1ccccc1)NC(=O)[C@H](CC(N)=O)NC(=O)[C@@H]1CCCN1C(=O)[C@H](CO)NC(=O)[C@H](CO)NC(=O)[C@H](Cc1c[nH]cn1)NC(=O)[C@H](CCCNC(=N)N)NC(=O)[C@H](CC(C)C)NC(=O)[C@H](Cc1ccccc1)NC(=O)[C@H](CCC(=O)O)NC(=O)[C@H](C)NC(=O)[C@H](CC(C)C)NC(=O)[C@H](CCCNC(=N)N)NC(=O)[C@H](CCC(N)=O)NC(=O)[C@@H](NC(=O)[C@H](C)NC(=O)[C@@H]1CSSC[C@H](NC(=O)[C@@H](N)CCCCNC(=O)CC[C@H](NC(=O)CC[C@H](NC(=O)CCCCCCCCCCCCCCCCCCC(=O)O)C(=O)O)C(=O)O)C(=O)N[C@@H](CC(N)=O)C(=O)N[C@@H]([C@@H](C)O)C(=O)N[C@@H](C)C(=O)N[C@@H]([C@@H](C)O)C(=O)N1)[C@@H](C)O)C(=O)N1CCC[C@H]1C(=O)N[C@@H](CO)C(=O)N[C@@H](CO)C(=O)N[C@H](C(=O)N[C@@H](CC(N)=O)C(=O)N[C@H](C(=O)NCC(=O)N1CCC[C@H]1C(=O)N[C@@H](Cc1c[nH]cn1)C(=O)N[C@H](C(=O)N[C@@H](Cc1ccc(O)cc1)C(N)=O)[C@@H](C)O)C(C)C)[C@@H](C)O [Example 124] (H-K([γGlu-γGlu-C20 diacid])CNTATCATQRLAEFLRHSSPNFGAIPSSTNVGPHTY-NH2; disulfide 2-7 (inferred)) | 0.288 | 73.0 | 73.0 | 73.0 | 45
